Experimental data published in patent publication US10111428B2, “Nematocide containing lactonic ring and preparation method and application thereof” (priority 2015, dated 2018).
In brackets after ≈: the same amount, converted by molar mass.

Columns and labels:
[1] = tested on: Nematode J2; test: Plant pathogenic nematode inhibition test by dipping: second-stage juveniles; type: in vivo; conditions: in vivo
[2] = tested on: Nematode eggs; test: Plant pathogenic nematode inhibition test by dipping: nematode egg hatch inhibition (NY/T 1154.5-2006); type: in vivo; conditions: in vivo
Experimental: A plant pathogenic nematode inhibition test is conducted by dipping with the compounds in Table 1; and by referring to NY/T 1154.5-2006 (Part 5: Dipping Test for Insecticide Ovicidal Activity), the nematode egg hatch inhibition activity of the compounds is tested, as shown in Table 2: […]

[3] = tested on: Edaphon; test: Edaphon toxicity test (Test Guidelines on Environmental Safety Assessment for Chemical Pesticides); conditions: 15 d; 100 times of usual dose (simulative usual dose 40 ppm); cell adds 'low toxicity'
Experimental: (§1) According to the earthworm and edaphon toxicity test procedures as prescribed in the Test Guidelines on Environmental Safety Assessment for Chemical Pesticides, earthworm and edaphon toxicity tests are conducted on compounds 1 to 60 from Table 1. The simulative usual dose of pesticide in the edaphon test is 40 ppm.

[4] = tested on: Earthworm; test: Earthworm toxicity test (Test Guidelines on Environmental Safety Assessment for Chemical Pesticides); type: in vivo; conditions: cell adds 'low toxicity'
Experimental: as §1

| SMILES | LC50 [1] [µg/mL] | LC50 [2] [µg/mL] | Edaphon Toxicity (15 d) (Inhibition ratio when added amount is 100 times of usual dose) [3] | Earthworm Toxicity LC50 (14 d) [4] |
| --- | --- | --- | --- | --- |
| O=C1CC(C(=O)OCCC=C(F)F)C(c2ccccc2)O1 (centres unmarked) [Compound 1] | 12.24 (≈ 41.3 µM) | 11.81 (≈ 39.9 µM) | <50%, low toxicity | >10, low toxicity mg/L |
| COc1c(F)cc(C2OC(=O)CC2C(=O)OCCC(F)=C(F)F)cc1F (centres unmarked) [Compound 33] | 13.37 (≈ 35.2 µM) | 12.08 (≈ 31.8 µM) | <50%, low toxicity | >10, low toxicity mg/L |
| O=C1CC(C(=O)OCCC(F)=C(F)F)C(c2ccc(Cl)cc2F)O1 (centres unmarked) [Compound 21] | 13.74 (≈ 37.5 µM) | 11.98 (≈ 32.7 µM) | <50%, low toxicity | >10, low toxicity mg/L |
| CCCCc1ccc(C2OC(=O)CC2C(=O)OCCC(F)=C(F)F)cc1 (centres unmarked) [Compound 6] | 13.45 (≈ 36.3 µM) | 11.81 (≈ 31.9 µM) | <50%, low toxicity | >10, low toxicity mg/L |
| O=C1CC(C(=O)OCCC(F)=C(F)F)C(c2cccc([N+](=O)[O-])c2)O1 (centres unmarked) [Compound 57] | 14.23 (≈ 39.6 µM) | 12.12 (≈ 33.7 µM) | <50%, low toxicity | >10, low toxicity mg/L |
| O=C1CC(C(=O)OCCC(F)=C(F)F)C(c2cc(F)ccc2F)O1 (centres unmarked) [Compound 28] | 15.07 (≈ 43 µM) | 13.23 (≈ 37.8 µM) | <50%, low toxicity | >10, low toxicity mg/L |
| O=C1CC(C(=O)OCCC(F)=C(F)F)C(c2ccc(C(F)(F)F)cc2F)O1 (centres unmarked) [Compound 32] | 13.23 (≈ 33.1 µM) | 12.14 (≈ 30.3 µM) | <50%, low toxicity | >10, low toxicity mg/L |
| O=C1CC(C(=O)OCCC(F)=C(F)F)C(c2ccccc2C(F)(F)F)O1 (centres unmarked) [Compound 46] | 11.24 (≈ 29.4 µM) | 9.98 (≈ 26.1 µM) | <50%, low toxicity | >10, low toxicity mg/L |
